In ChEMBL document CHEMBL3779888, “Discovery of novel 2-phenyl-imidazo[1,2-a]pyridine analogues targeting tubulin polymerization as antiproliferative agents” (Eur J Med Chem, 2016) one finds IC50 and inhibition data, which are given here for 14 molecules.

In one assay the test system is HeLa. The assay can be described thus: Cytotoxicity against human HeLa cells after 3 days by SRB assay. The assay is classed as functional, cell-based. Particulars: 72 h. In general terms: Sulforhodamine B stains cellular protein and so reports cell mass.
The target in another assay is Tubulin (Sus scrofa, UniProt P02554+P02550). The assay can be described thus: Inhibition of porcine tubulin polymerization by UV-Vis microplate reader analysis. The assay is classed as protein assay.
Another assay has as its target Tubulin (Sus scrofa) (UniProt P02554+P02550). Put plainly: Displacement of [3H]-colchicine from porcine tubulin at 20 uM preincubated for 1 hr followed by radioligand addition measured after 30 mins by DE81 filter-based scintillation spectrometric assay. The assay is classed as protein assay. Background: In a radioligand displacement assay an active substance lowers the binding of a labelled ligand.

The structures appear in SMILES notation.

Tubulin (Sus scrofa), sequence (P02550 whole entry, looked up): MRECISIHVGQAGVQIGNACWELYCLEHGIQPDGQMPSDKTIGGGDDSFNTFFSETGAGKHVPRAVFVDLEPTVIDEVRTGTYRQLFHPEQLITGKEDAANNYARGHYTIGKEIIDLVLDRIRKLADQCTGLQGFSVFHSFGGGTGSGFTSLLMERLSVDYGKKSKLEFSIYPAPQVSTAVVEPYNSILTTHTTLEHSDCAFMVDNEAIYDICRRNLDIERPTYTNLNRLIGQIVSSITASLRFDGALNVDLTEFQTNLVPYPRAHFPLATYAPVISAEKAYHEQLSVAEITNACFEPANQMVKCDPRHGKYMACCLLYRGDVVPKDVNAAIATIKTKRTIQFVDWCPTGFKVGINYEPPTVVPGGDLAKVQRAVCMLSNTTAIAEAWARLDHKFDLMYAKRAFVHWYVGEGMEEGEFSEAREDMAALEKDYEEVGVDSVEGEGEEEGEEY
Tubulin (Sus scrofa), sequence (P02554 whole entry, looked up): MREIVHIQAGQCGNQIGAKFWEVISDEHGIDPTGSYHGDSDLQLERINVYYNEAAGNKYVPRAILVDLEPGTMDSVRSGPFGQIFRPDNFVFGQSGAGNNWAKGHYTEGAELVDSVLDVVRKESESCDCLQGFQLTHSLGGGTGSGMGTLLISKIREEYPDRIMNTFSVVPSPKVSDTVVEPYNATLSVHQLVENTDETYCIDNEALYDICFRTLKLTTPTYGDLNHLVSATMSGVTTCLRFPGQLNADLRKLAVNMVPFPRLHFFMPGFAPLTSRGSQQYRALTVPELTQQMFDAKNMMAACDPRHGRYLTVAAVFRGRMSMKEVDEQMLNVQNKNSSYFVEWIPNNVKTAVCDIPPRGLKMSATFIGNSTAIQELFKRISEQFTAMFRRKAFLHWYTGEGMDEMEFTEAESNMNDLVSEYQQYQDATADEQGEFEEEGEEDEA

In the case of `COc1ccc(CNc2c(-c3ccccc3O)nc3cnccn23)cc1`, the IC50 (as a rule, the concentration that inhibits the measured activity by half) with HeLa was 0.037 µM; on Tubulin, 7.16 µM. For the same molecule, the inhibition (as a rule, the percentage by which the read-out fell short of the control) on Tubulin (Sus scrofa) is 41.1%.
For the molecule `COc1ccc(CNc2c(-c3ccccc3O)nc3ccc(F)cn23)cc1`, the results for the IC50 in the assay with HeLa and at Tubulin were 0.013 µM and 3.41 µM, respectively. On Tubulin (Sus scrofa), this molecule came in with an inhibition of 72.2%.
`COc1ccc(CNc2c(-c3ccccc3OC)nc3ccccn23)cc1` came in with an IC50 in the assay with HeLa of 0.23 µM.
Same read-out and setting: next, `COc1ccc(CNc2c(-c3ccccc3O)nc3ccc(Br)cn23)cc1`: 0.81 µM.
On the same count and under the same terms, to `COc1ccc(CNc2c(-c3c(O)cc(OC)cc3OC)nc3ccccn23)cc1` belongs over 10 µM.
As for `COc1ccc(CNc2c(-c3ccccc3O)nc3ccccn23)cc1`, the IC50 with HeLa was 0.015 µM; against Tubulin, 4.35 µM. Also, the inhibition on Tubulin (Sus scrofa) is 66%.
The molecule `COc1ccc(CNc2c(-c3ccccc3NS(C)(=O)=O)nc3ccccn23)cc1` yielded an IC50 with HeLa of over 10 µM.
With `COc1ccc(CNc2c(-c3ccccc3NC(C)=O)nc3ccccn23)cc1`, the IC50 in the assay with HeLa was over 10 µM.
The same measure, in the same setting: to `COc1ccc(CNc2c(-c3cc(Cl)cc(Cl)c3O)nc3ccccn23)cc1` belongs 4.16 µM.
The same measure, in the same setting: to `COc1cc2c(c(OC)c1OC)-c1ccc(OC)c(=O)cc1[C@@H](NC(C)=O)CC2` [COLCHICINE] belongs 0.037 µM; to `COc1ccc(Nc2c(-c3ccccc3O)nc3ccccn23)cc1`, over 10 µM; to `COc1ccc(CNc2c(-c3ccccc3O)nc3cccc(F)n23)cc1`, 0.046 µM.
The same measure, in the same setting: to `COc1ccc(CCNc2c(-c3ccccc3O)nc3ccccn23)cc1` belongs 8.22 µM; to `COc1ccc(CNc2c(-c3cc([N+](=O)[O-])ccc3O)nc3ccccn23)cc1`, 0.21 µM.
